Data as given in patent US12454527B2, “Conjugate monomethyl auristatin E to obtain a composition for treatment of prostate cancer” (priority 2019, dated 2025).
Entries after “also recorded” stand apart in the source; their conditions may differ. Non-standard residues stand in square brackets, D forms with d. Residues, ends and D or L forms follow the SMILES beside them. *: point of attachment. Dolaproine = CO[C@@H]([C@@H]1CCCN1)[C@@H](C)C(=O)O; Dil = CC[C@H](C)[C@H](NC)[C@@H](CC(=O)O)OC; X2 = C[C@@H](N*)[C@@H](O)c1ccccc1; NMeV = CN[C@H](C(=O)O)C(C)C

What was measured:
[1] = Chronic toxicity study, intravenous once every 3 weeks, rabbits; format: in vivo
From the text: (§1) Chronic toxicity study of Conjugate (1) product on Rats and rabbits.
(§2) • 1. Conjugate (I). • 2. Solubilizer Pluronic F127—in the amount, five-fold greater than the conjugate amount by weight. • 3. Diluent—Haemodes infusion solution. • 4. Dimethyl sulfoxide—in the amount of 5% of the prepared volume.
(§3) A 1 00 white ° inbred mature male rats about 2 months old with a body weight of 190-210 g and 60 sexually mature male rabbits of the Soviet Chinchilla breed about 2 months old with a body weight of […] were involved in the experiment.
(§4) The study design determined the intravenous administration of the test drugs once every 3 weeks for 3 months (a total of 4 injections) for the experiment of chronic toxicity determination. The local irritant effect of the products within intravenous administration will be studied together with the chronic toxicity study.
(§5) Each animal received the intravenous injection of the test drug or the reference drug in a volume not exceeding the acceptable volume for a single injection of 2 mL for rats and 20 mL for rabbits. The products were replaced with a Pluronic solution with DMSO in Haemodes in the control group of animals. The duration of observation for laboratory animals was 4 weeks (intermediate stage).
(§6) Apparent signs of intoxication were evaluated daily. During the study, integral indicators of animal health were recorded (see Tables 15. 16, 17).

[2] = Chronic toxicity study, intravenous once every 3 weeks, rats; format: in vivo
From the text: as §1, §2, §3, §4, §5, §6

CC[C@H](C)[C@@H]([C@@H](CC(=O)N1CCC[C@H]1[C@H](OC)[C@@H](C)C(=O)N[C@H](C)[C@@H](O)c1ccccc1)OC)N(C)C(=O)[C@@H](NC(=O)[C@@H](NC)C(C)C)C(C)C [MMAE, Monomethyl auristatin E] (H-[NMeV]V[Dil][Dolaproine]-X2)
Signs of intoxication: the intake of feed and water ([1]; male rabbits, group 10, 5.4 μg/kg, after administration): decreased. About a day after | Signs of intoxication ([1]; male rabbits, group 10, 5.4 μg/kg, about a day after administration and before death): superficial respiration and adynamia | Necropsy ([1]; male rabbits, group 10, 5.4 μg/kg, rabbit No. 4): grayish tint; thymus had hemorrhages; | Animals survived up to the second injection ([1]; rabbits, chronic, reference drug): no rabbits | Chronic toxicity (overall) ([1]; rabbits, i.v. once every 3 weeks, intermediate stage 4 weeks): high toxicity | Signs of intoxication ([2]; male rats, group 5, 10 μg/kg intravenously 1 time in 3 weeks): with impaired movement; also recorded: coordination, shortness of breath,; also recorded: diarrhea; also recorded: position, tremor, the hind limb; also recorded: the hindlimb paresis; rats No. 3-5 -; also recorded: decreased motor activity, the hind; also recorded: hindlimb paresis, porphyrin secretion | Signs of intoxication: loss of body weight ([2]; male rats, group 5, 10 μg/kg, 30 Apr. 2019): 15 to 20 g | Necropsy ([2]; male rats, group 5, 10 μg/kg, animals No. 1, 5, 6 and No. 3): severely inflated; adrenal glands were 2-fold; also recorded: increase; blood in the kidneys, pink renal pelvis; also recorded: hemorrhages and ulcers; the kidneys were pale,; also recorded: liver was granular, palish | Animals survived up to the second injection ([2]; rats, chronic, reference drug): only one rat animal | Chronic toxicity (overall) ([2]; rats, i.v. once every 3 weeks, intermediate stage 4 weeks): high toxicity
